The values that follow come from ChEMBL document CHEMBL1201862, “PubChem BioAssay data set” (2004).

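How tested: cells in 96-well plates exposed to compound for 48 hours at five concentrations. GI50 marks 50% less growth.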 Calls of active or inactive are those of the source. Cut-off read from the data, not from the text of the source: active = GI50 up to about 1.1 µM and inactive = higher. Some results are limits rather than exact numbers.

Common to all, as to assay: growth of human tumour cells (NCI), 48 h
Experiment [1] has as its system A498.
Experiment [2] deals with A549.
Experiment [3] concerns EKVX.
For experiment [4], the system named is HCT-15.
The test system of experiment [5] is HOP-62.
Experiment [6] concerns K562.
Experiment [7] deals with M14.
Experiment [8] has as its system OVCAR-3.
Experiment [9] concerns OVCAR-4.
The subject of experiment [10] is OVCAR-8.
In experiment [11] the test system is RXF 393.
In experiment [12] the test system is SR.
The subject of experiment [13] is TK-10.
Experiment [14] has as its system U-251.
The test system of experiment [15] is UACC-257.
In experiment [16] the test system is UO-31.
Experiment [17] relates to HCC 2998.
Experiment [18] has as its system SK-MEL-5.

Take `COC(=O)C(=O)C(C(=O)C(=O)Nc1ccc([N+](=O)[O-])cc1C#N)c1nc2ccc([N+](=O)[O-])cc2nc1O` (stereo not given): the GI50 in experiment [1] is 52.2 µM (inactive); in [2], > 100 µM (inactive); in [3] it was 35.6 µM (inactive); in experiment [4], more than 100 µM; in experiment [5] it was 94.2 µM (inactive); in [6] it was > 100 µM (inactive). Also, the GI50 in [7] was > 100 µM (inactive); in experiment [8], > 100 µM (inactive); in [9] it was > 100 µM (inactive); in [10] it was > 100 µM (inactive); in experiment [11], > 100 µM (inactive); in experiment [12], 96.8 µM (inactive). For the same compound, the GI50 in experiment [13], in [14], in experiment [15] and in experiment [16] was > 100 µM (inactive) in each case.

Turning to `CCOC(=O)C1Cc2[nH]c3ccccc3c2C(C)C1C` (stereo not given), the GI50 in [1] is 17.4 µM (inactive); in [2], 14.1 µM (inactive); in [3], 10.8 µM (inactive); in experiment [17], > 10 µM (inactive); in experiment [4] it was 16.7 µM; in [6] it was 23.5 µM (inactive). Besides, the GI50 in experiment [7] is 16.7 µM (inactive); in experiment [8] it was 15.6 µM (inactive); in experiment [9] it was 16 µM (inactive); in [10] it was 3.55 µM (inactive); in [18], 14 µM (inactive); in experiment [12], 16.6 µM (inactive). Also, the GI50 was 30 µM (inactive) in [13], 18.5 µM (inactive) in [14], 17.6 µM (inactive) in experiment [15] and 12.8 µM (inactive) in [16].

`CC12C/C(=C\c3ccccc3)C(=O)C3C1CCCC32`: the GI50 in [1] was > 100 µM (inactive); in experiment [2] it was > 100 µM (inactive); in experiment [17] it was 44.5 µM (inactive); in [4], more than 100 µM; in experiment [5] it was > 100 µM (inactive); in experiment [6], 38.6 µM (inactive). The GI50 in experiment [7] is > 100 µM (inactive); in experiment [8], 74.6 µM (inactive); in experiment [9] it was 66.4 µM (inactive); in experiment [10] it was > 100 µM (inactive); in experiment [18], 46 µM (inactive); in [12] it was 36.8 µM (inactive). The GI50 is > 100 µM (inactive) in [13], 61.4 µM (inactive) in experiment [14], 53 µM (inactive) in experiment [15] and > 100 µM (inactive) in experiment [16].

With `COc1ccc(/N=C(/[N-]n2c(=O)c(C)nn(C)c2=S)N(c2ccc(OC)cc2)c2n[n+]3c(=O)c(C)nn(C)c3s2)cc1`, the GI50 is 93.3 µM (inactive) in experiment [1]; > 100 µM (inactive) in [2]; > 100 µM (inactive) in experiment [3]; more than 100 µM in [4]; > 100 µM (inactive) in experiment [5]; > 100 µM (inactive) in [6]. Further, the GI50 in experiment [7], in experiment [9], in [10], in [11], in [18] and in [12] was > 100 µM (inactive) throughout. Besides, the GI50 in experiment [14] and in experiment [15] was > 100 µM (inactive) each time.

Regarding `CC1CCc2c(sc3ncnc(N/N=C/c4ccc(Cl)c(Cl)c4)c23)C1` (stereo not given), the GI50 in experiment [2] was 4.13 µM (inactive); in experiment [3] it was 25 µM (inactive); in experiment [17] it was 23.6 µM (inactive); in experiment [4], 9.73 µM; in experiment [5], 25.2 µM (inactive); in experiment [6], 4.4 µM (inactive). Further, the GI50 in experiment [7] is 14.3 µM (inactive); in experiment [8], 17 µM (inactive); in experiment [10], 17.9 µM (inactive); in [11], 20.9 µM (inactive); in experiment [18], 16.7 µM (inactive); in [12], 4.83 µM (inactive). Besides, the GI50 in experiment [13] is 23.7 µM (inactive); in experiment [14], 5.2 µM (inactive); in experiment [15] it was 31 µM (inactive); in experiment [16], 12.2 µM (inactive).

For the compound `CCOC(=O)C/C(N)=C(\C#N)C(=O)OCC`, the GI50 in experiment [1] is > 100 µM (inactive); in experiment [2], > 100 µM (inactive); in [3] it was > 100 µM (inactive); in [4], more than 100 µM; in [6], > 100 µM (inactive); in [7], > 100 µM (inactive). Moreover, the GI50 in [8], in experiment [10], in experiment [11], in experiment [18], in experiment [12] and in [13] was > 100 µM (inactive) each time. The GI50 in experiment [14] and in experiment [16] was > 100 µM (inactive) in each case.

For `CCCn1c(SCCSc2c3ccccc3c(-c3nc(F)nc(F)n3)n2CCC)c2ccccc2c1-c1nc(F)nc(F)n1`, the GI50 in experiment [2] was > 100 µM (inactive); in experiment [3], > 100 µM (inactive); in experiment [17], > 100 µM (inactive); in experiment [4] it was more than 100 µM; in experiment [5], > 100 µM (inactive); in experiment [6], > 100 µM (inactive). For the same compound, the GI50 in experiment [7] was > 100 µM (inactive); in experiment [8], > 100 µM (inactive); in experiment [9], > 100 µM (inactive); in experiment [10], > 100 µM (inactive); in experiment [11], > 100 µM (inactive); in experiment [12], 27 µM (inactive). Moreover, the GI50 in experiment [13], in [14], in experiment [15] and in experiment [16] was > 100 µM (inactive) each time.

With `O=C(C=C1SCCS1)/C=C\c1ccc(Cl)cc1`, the GI50 is > 100 µM (inactive) in experiment [1]; > 100 µM (inactive) in experiment [2]; > 100 µM (inactive) in experiment [3]; 26.4 µM (inactive) in experiment [17]; > 100 µM (inactive) in experiment [5]; 49.5 µM (inactive) in [6]. In addition, the GI50 in experiment [7] was > 100 µM (inactive); in [8] it was > 100 µM (inactive); in [9], > 100 µM (inactive); in experiment [10], > 100 µM (inactive); in [18] it was > 100 µM (inactive); in experiment [12] it was 85.7 µM (inactive). Further, the GI50 in [13] is 97.5 µM (inactive); in [15], 80.2 µM (inactive); in experiment [16], > 100 µM (inactive).

`COc1cc([C@@H]2c3cc4c(cc3[C@@H](NCc3ccccc3F)C3COC(=O)[C@@H]32)OCO4)cc(OC)c1O` (stereo not given in full): the GI50 in [1] was 5 µM (inactive); in [2], 0.933 µM (active); in [3], 10.7 µM (inactive); in experiment [17], 11.8 µM (inactive); in experiment [4] it was 1.63 µM; in experiment [5] it was 1.93 µM (inactive). Further, the GI50 in [6] is 1.47 µM (inactive); in experiment [7], 3.01 µM (inactive); in experiment [8] it was 15.6 µM (inactive); in experiment [9] it was 16.6 µM (inactive); in experiment [10], 6.03 µM (inactive); in experiment [11] it was 5.18 µM (inactive). Further, the GI50 in experiment [18] is 0.828 µM (active); in experiment [13], 27.6 µM (inactive); in [14] it was 1.89 µM (inactive); in [15], 3.1 µM (inactive); in experiment [16], 4.05 µM (inactive).
